The target in test [1] is T1, α-synuclein fibrils (Homo sapiens, UniProt P37840). The test can be described thus: ThT saturation binding to α-synuclein fibrils. To be noted: Tris buffer 30 mM pH 7.4.
Test [2] addresses T1, α-synuclein fibrils.

`Cc1ccc2c(c1)sc(-c1ccc(N(C)C)cc1)[n+]2C` [ThT, Thioflavin T]: the “Bmax of ThT binding to α-synuclein fibrils” value at α-synuclein fibrils [1] was found to be 5672 afu.
Regarding `CCc1cc(Cl)c(OC)c(C(=O)NC[C@@H]2CCCN2CC)c1O.Cl` [eticlopride hydrochloride], the “Competition for ThT in the assay (specificity control)” value on α-synuclein fibrils [2] is “no significant competition”.

The values are drawn from article PMC3401268 (Bioorganic & medicinal chemistry, 2012).
